Key:
[1] = system: hematopoietic recovery after cyclophosphamide; experiment: Hematopoietic recovery after cyclophosphamide (Example 50); format: in vivo, Balb/C mice; conditions: 2 μmoles/mouse
Method: Cyclophosphamide (CP) (275 mg/kg, i.p.) was administered to 96 Balb/C female mice weighing approximately 20 grams each. Twenty-four hours later and each day thereafter mice were given a 0.4 ml i.p. injection of either Tween-80 (0.2%) (controls), palmitoyldeoxyguanosine (2 μmoles/mouse), palmitoyldeoxyinosine (2 μmoles/mouse), palmitoylacyclovir (2 μmoles/mouse), palmitoylarabinosylguanine (2 μmoles/mouse), palmitoylarabinosylhypoxanthine (2 μmoles/mouse), monopalmitoylguanosine 2',3'-acyclic dialcohol (2 μmoles/mouse), and palmitoyl-8-thioguanosine (2 μmoles/mouse). On days 5 and 7 following CP administration 6 animals in each of the 8 groups were bled and then sacrificed by cervical dislocation. Spleens were removed and weighed, and complete blood cell counts performed.

[2] = system: human myeloid leukemia cell line (HL-60); conditions: cited from earlier work; for conversion of immature blast cells into mature granulocytes: HL-60 in vitro
[3] = system: hematopoiesis in normal mice; experiment: Hematopoiesis in normal mice (Example 56); format: in vivo, Balb/C mice; conditions: day 5, 2.6 μmoles/mouse, 4 days
Method: Normal Balb/C female mice weighing approximately 20 grams each were given a daily 0.4 ml i.p. injection of either physiological saline (controls), palmitoylguanosine (2.6 μmoles/mouse), palmitoyldeoxyguanosine (2.6 μmoles/mouse), monopalmitoylguanosine 2',3'-acyclic dialcohol (2.6 μmoles/mouse), and palmitoyl-8-bromoguanosine (2.6 μmoles/mouse) for 4 days. On the fifth day all 3 animals in each of the 5 groups were bled and then sacrificed by cervical dislocation. Spleens were removed and weighed, and complete blood cell counts performed. Femoral bone marrow from each mouse was collected and a differential cell count performed on marrow smears.

[4] = system: blood cell counts after 5-fluorouracil; experiment: Pretreatment dose response, recovery after 5-fluorouracil (Example 65); format: in vivo, Balb/C mice
Method: Sixty female Balb/C mice weighing approximately 20 grams each were distributed into one of five treatment groups and treated once daily for three days by i.p. injection with 3',5'-O-N^2 -tripalmitoyl-2'-deoxyguanosine at a dose of either 1, 5, 10, 25, or 50 mg/kg/treatment in a Tween-DMSO vehicle (0.2% Tween-80 and 7.5% DMSO in physiological saline). Injection volume was 0.4 ml. An additional twelve animals (controls) received vehicle alone on those three days. On the fourth day all seventy-two animals received a single i.p. injection of 5-fluorouracil (5-FU) at a dose of 150 mg/kg. On days 7 and 10 following 5-FU administration six mice from each group were bled and then sacrificed by cervical dislocation. Six untreated mice were also bled and sacrificed to provide data on normal (basal) values. Spleens were removed and weighed, and complete blood cell counts performed.

[5] = system: blood cell counts after cyclophosphamide; experiment: Hematopoietic recovery after cyclophosphamide (Example 62); format: in vivo, Balb/C mice; conditions: for Spleen: 25 mg/kg TriPdG or molar equivalent
Method: Thirty-six female Balb/C mice weighing approximately 20 grams each received a 0.4 ml i.p. injection of either 3',5'-O-N^2 -tripalmitoyl-2'-deoxyguanosine (triPdG) at a dose of 25 mg/kg/treatment or 3',5'-O-dipalmitoyl-2'-deoxyguanosine (diPdG) at a dose that was the molar equivalent of 25 mg/kg tripalmitoylgdeoxyguanosine, in a Tween-DMSO vehicle (0.2% Tween-80 and 7.5% DMSO in saline) or vehicle alone one time daily for five days following a single injection of cyclophosphamide (CP) (250 mg/kg, i.p.). On days 5 and 7 following CP administration six animals from each of these three groups were bled and then sacrificed by cervical dislocation. Six untreated mice were also bled and sacrificed to provide data on normal. (basal) values. Spleens were removed and weighed, and complete blood cell counts performed.

[6] = system: blood cell counts after cyclophosphamide; experiment: Hematopoietic recovery after cyclophosphamide (Example 63); format: in vivo, Balb-C mice; conditions: for Spleen: 25 mg/kg TriPdG or molar equivalent
Method: Fifty-eight female Balb-C mice weighing approximately 20 grams each received a single injection of cyclophosphamide (250 mg/kg, i.p.), and were then distributed into a vehicle control group (0.2% Tween-80+7.5% DMSO in saline; n=12) or one of five treatment groups:
Vehicle or treatment agents were administered to mice once daily for five days at a volume of 0.4 ml by i.p. injection. TriPdG was given at a dose of 25 mg/kg/treatment. The other four agents were given in doses that are the molar equivalent of 25 mg/kg/treatment of TriPdG. On days 5 and 7 following CP administration half of the animals from each of the six groups were bled and then sacrificed by cervical dislocation. Five untreated mice were also bled and sacrificed to provide data on normal (basal) values. Spleens were removed and weighed, and complete blood cell counts performed.

[7] = system: FDCPmix cells; experiment: Proliferation of FDCPmix cells, MTT assay (Example 69); format: cell-based
Method: The FDCPmix cell line was used as a suitable in vitro model for predicting the effects of hematopoietic factors on pluripotential stem cells. These cells can be maintained in an-undifferentiated state in the presence of IL-3 or undergo multi-lineage development in the presence of specific hematopoietic growth factors.
This level of proliferation (100%) served as the control value. Inhibition of proliferation by test compounds was represented as a percent of control.
FDCPmix cells were plated at a density of 5×10^4 cells per well in 96-well plates (5×10^5 /ml) using IMDM medium plus 10% fetal bovine serum. […] Test compounds were added at a decreasing concentrations ranging from 10 micrograms/ml down to 1 nanogram/ml. The test compounds included: 3',5'-O-N^2 -tripalmitoyl-2'-deoxyguanosine, 3',5'-di-O-palmitoyl-2'-deoxyguanosine, 3',5'-O-N^2 -trioctanoyl-2'-deoxyguanosine, 3',5'-di-O-octanoyl-2'-deoxyguanosine, and 3',5'-O-N^2 -trioleyl-2'-deoxyguanosine.

[8] = system: bone marrow cells; experiment: Proliferation of bone marrow cells in long-term culture (Example 68); format: cell-based, B6D2F1 mice; conditions: 10 micrograms per ml
Method: Bone marrow cells from the femurs of B6D2F1 mice were used to establish long-term marrow cultures. After four weeks, when the stromal layer was confluent, the culture was treated with microphenolic acid in order to remove all cells from the stroma. New normal bone marrow cells (1×10^5 /ml) from the same source were then used to "recharge" the stromal layer. Palmitoyldeoxyguanosine was added to half of the cultures at a concentration of 10 micrograms per ml. Cells were counted on days 1, 3, 5, and 7 following addition of palmitoyldeoxyguanosine. On days 4 and 7 cells from the culture were removed, washed, and replated in methylcellulose. The number of granulo-monocytic colonies was counted one week later.

[9] = system: hematopoiesis in normal mice; experiment: Hematopoiesis in normal mice (Example 44); format: in vivo, Balb/C mice
Method: Normal, otherwise untreated, female Balb/C mice weighing approximately 20 grams each received a total of 4 or 9 0.4 ml intraperitoneal injections (one per day) of either Tween-80 (0.2%) (controls), palmitoylguanosine (2.5 μmoles/mouse/day), or palmitoyldeoxyinosine (2.5 μmoles/mouse/day). Twenty-four hours after the 4th or 9th treatment, groups of 5 or 6 animals from each of the 3 groups were bled and then sacrificed by cervical dislocation. Spleens were removed and weighed, and complete blood cell counts performed.

[10] = system: hematopoietic recovery after cyclophosphamide; experiment: Hematopoietic recovery after cyclophosphamide (Example 48); format: in vivo, Balb/C mice
Method: Cyclophosphamide (CP) (275 mg/kg, i.p.) was administered to 36 Balb/C female mice weighing approximately 20 grams each. Twenty four hours later and each day thereafter for a total of 4 or 6 days, mice were given a 0.4 ml i.p. injection of either physiological saline (controls), palmitoyldeoxyinosine (2.5 μmoles/mouse), or palmitoylxanthosine (2.5 μmoles/mouse). On days 5 and 7 following CP administration 6 of the 12 animals in each of the 3 groups were bled and then sacrificed by cervical dislocation. Spleens were removed and weighed, and complete blood cell counts performed.

[11] = 48 h, read-out: Cell proliferation

Compound: CCCCCCCCCCCCCCCC(=O)OCCOCn1cnc2c(=O)[nH]c(N)nc21 [1-O-palmitoylacyclovir, palmitoylacyclovir]
- white blood cell count ([1]; day 5): significantly elevated compared to controls in all but one treatment group (1-O-palmitoylacyclovir)

Compound: OC[C@H]1O[C@@H](n2cnc3c(O)ncnc32)[C@H](O)[C@@H]1O [inosine]
- effect on induced maturation of HL-60 cells ([2]; HL-60 with inducing agents): no effect on induced maturation

Compound: Palmitoylguanosine 2,3'-acyclic dialcohol
- platelet counts [3]: significantly elevated in the all of the treatment groups except palmitoylguanosine 2',3'-acyclic dialcohol
- spleen weight [3]: significantly elevated
- number of myelocytes ([3]; femoral bone marrow): significantly greater
- spleen weight ([1]; day 5): significantly elevated

Compound: CCCCCCCCCCCCCCCC(=O)Nc1nc2c(ncn2[C@H]2C[C@H](OC(=O)CCCCCCCCCCCCCCC)[C@@H](COC(=O)CCCCCCCCCCCCCCC)O2)c(=O)[nH]1 [TriPdG, 3',5'-O-N^2-tripalmitoyl-2'-deoxyguanosine]
- Platelets ([4]; 7 days after 5-FU, 1 mg/kg): 457 ± 36 K/μl
- Spleen ([4]; 7 days after 5-FU, 1 mg/kg): 74 ± 3 mg
- Platelets ([4]; 7 days after 5-FU, 5 mg/kg): 682 ± 66 K/μl
- Spleen ([4]; 7 days after 5-FU, 5 mg/kg): 78 ± 4 mg
- Platelets ([4]; 7 days after 5-FU, 10 mg/kg): 571 ± 41 K/μl
- Spleen ([4]; 7 days after 5-FU, 10 mg/kg): 83 ± 6 mg
- Platelets ([4]; 7 days after 5-FU, 25 mg/kg): 587 ± 19 K/μl
- Spleen ([4]; 7 days after 5-FU, 25 mg/kg): 93 ± 5 mg
- Platelets ([4]; 7 days after 5-FU, 50 mg/kg): 596 ± 43 K/μl
- Spleen ([4]; 7 days after 5-FU, 50 mg/kg): 102 ± 4 mg
- Lymphocytes ([4]; 10 days after 5-FU, 1 mg/kg): 5.7 ± .2 K/μl
- Neutrophils ([4]; 10 days after 5-FU, 1 mg/kg): 0.4 ± .2 K/μl
- Spleen ([4]; 10 days after 5-FU, 1 mg/kg): 96 ± 13 mg
- WBC ([4]; 10 days after 5-FU, 1 mg/kg): 6.2 ± .4 K/μl
- Lymphocytes ([4]; 10 days after 5-FU, 5 mg/kg): 6.3 ± .7 K/μl
- Neutrophils ([4]; 10 days after 5-FU, 5 mg/kg): 1.6 ± .4 K/μl
- Spleen ([4]; 10 days after 5-FU, 5 mg/kg): 157 ± 13 mg
- WBC ([4]; 10 days after 5-FU, 5 mg/kg): 8.2 ± .9 K/μl
- Lymphocytes ([4]; 10 days after 5-FU, 10 mg/kg): 5.7 ± .4 K/μl
- Neutrophils ([4]; 10 days after 5-FU, 10 mg/kg): 1.8 ± .4 K/μl
- Spleen ([4]; 10 days after 5-FU, 10 mg/kg): 169 ± 24 mg
- WBC ([4]; 10 days after 5-FU, 10 mg/kg): 7.7 ± .6 K/μl
- Lymphocytes ([4]; 10 days after 5-FU, 25 mg/kg): 8.3 ± .4 K/μl
- Neutrophils ([4]; 10 days after 5-FU, 25 mg/kg): 2.9 ± .4 K/μl
- Spleen ([4]; 10 days after 5-FU, 25 mg/kg): 293 ± 17 mg
- WBC ([4]; 10 days after 5-FU, 25 mg/kg): 11.4 ± .6 K/μl
- Lymphocytes ([4]; 10 days after 5-FU, 50 mg/kg): 8.3 ± 1.0 K/μl
- Neutrophils ([4]; 10 days after 5-FU, 50 mg/kg): 2.2 ± .5 K/μl
- Spleen ([4]; 10 days after 5-FU, 50 mg/kg): 320 ± 39 mg
- WBC ([4]; 10 days after 5-FU, 50 mg/kg): 10.8 ± 1.6 K/μl
- Neutrophils ([5]; 5 days after CP): 2.5 ± .3 K/μl
- WBC ([5]; 5 days after CP): 4.1 ± .4 K/μl
- Spleen ([5]; 5 days after CP): 77 ± 7 mg
- Neutrophils ([5]; 7 days after CP): 9.9 ± .9 K/μl
- Platelets ([5]; 7 days after CP): 549 ± 25 K/μl
- WBC ([5]; 7 days after CP): 13.4 ± .4 K/μl
- Spleen ([5]; 7 days after CP): 156 ± 12 mg
- Neutrophils ([6]; 5 days after CP): 0.6 ± .1 K/μl
- Platelets ([6]; 5 days after CP): 330 ± 19 K/μl
- WBC ([6]; 5 days after CP): 3.6 ± .4 K/μl
- Spleen ([6]; 5 days after CP): 73 ± 3 mg
- Neutrophils ([6]; 7 days after CP): 7.3 ± .3 K/μl
- Platelets ([6]; 7 days after CP): 674 ± 37 K/μl
- WBC ([6]; 7 days after CP): 3.6 ± .4 K/μl
- Spleen ([6]; 7 days after CP): 198 ± 23 mg
- inhibition of proliferation ([7]; 10 micrograms/ml down): significant dose-dependent inhibitory effects at doses from 10 micrograms per ml down to 100 nanograms per ml
- activity at 0.01 µg/mL [7, 11]: 78 ± 1%
- activity at 0.039 µg/mL [7, 11]: 76 ± 2%
- activity at 0.156 µg/mL [7, 11]: 72 ± 3%
- activity at 0.625 µg/mL [7, 11]: 60 ± 2%
- activity at 2.5 µg/mL [7, 11]: 51 ± 0.7%
- activity at 10 µg/mL [7, 11]: 51 ± 0.6%
- Cells ([8]; day 1): 1.9 ± .13 10^6 /flask
- Cells ([8]; day 3): 2.9 ± .10 10^6 /flask
- granulocyte/macrophage colony-forming units ([8]; day 4): 5123 ± 561 CFU-GM/flask
- Cells ([8]; day 5): 7.7 ± .2 10^6 /flask
- Cells ([8]; day 7): 4.3 ± .15 10^6 /flask
- granulocyte/macrophage colony-forming units ([8]; day 7): 33903 ± 9457 CFU-GM/flask

Compound: palmitoylarabinosylhypoxanthine
- spleen weight ([1]; day 7): significantly elevated on day 7 in all treatment groups except palmitoylarabinosylguanine and palmitoylarabinosylhypoxanthine

Compound: palmitoylarabinosylguanine
- spleen weight ([1]; day 7): significantly elevated on day 7 in all treatment groups except palmitoylarabinosylguanine

Compound: NC(=O)c1csc([C@@H]2O[C@H](CO)[C@@H](O)[C@H]2O)n1 [tiazofurin, reference compound]
- conversion of immature blast cells into mature granulocytes [2]: induced

Compound: CN(C)C=O [dimethylformamide, reference compound]
- conversion of immature blast cells into mature granulocytes [2]: induced

Compound: CCCCCCCCCCCCCCCC(=O)OC[C@H]1O[C@@H](n2cnc3c(=O)[nH]cnc32)C[C@@H]1O
- spleen weight ([9]; day 5, 2.5 μmoles/mouse/day i.p.): significantly greater
- neutrophil counts ([9]; day 10, vs Tween 80): significantly greater
- spleen weight ([9]; day 10, vs Tween 80): significantly greater
- total leukocyte counts ([9]; day 10, vs Tween 80): significantly greater
- spleen weight ([10]; day 5, 2.5 μmoles/mouse, vs controls): significantly elevated
- neutrophil counts ([10]; day 5, vs controls): significantly elevated
- total leukocyte counts ([10]; day 5, vs controls): significantly elevated
- neutrophil counts ([10]; day 5, vs palmitoylxanthosine): significantly elevated
- total leukocyte counts ([10]; day 5, vs palmitoylxanthosine): significantly elevated
- Neutrophils ([10]; day 7, vs controls): significantly increased
- spleen weight ([10]; day 7, vs controls): significantly increased
- total leukocytes ([10]; day 7, vs controls): significantly increased
- spleen weight ([1]; day 5): significantly elevated

— patent US6054441A, “Oxypurine nucleosides and their congeners, and acyl derivatives thereof, for improvement of hematopoiesis” (priority 1995, dated 2000)
